Reference: patent US20260274892A1, “MACROCYCLIC BROAD SPECTRUM ANTIBIOTICS” (RQx Pharmaceuticals, Inc., priority 2017, published 2026)

Legend:
[1] = test system: Methicillin Resistant Staphylococcus aureus strain USA 200; assay: Minimum inhibitory concentration (MIC), CLSI broth micro-dilution, S. aureus; format: cell-based; settings: Table 6, MRSA USA 200, cation adjusted Mueller Hinton Broth + 0.002% Tween-80, 35° C., 22 hours
In short: (§1)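 Antibacterial potency is measured as MIC by the CLSI broth dilution method. Bacteria at OD600 0.0005 in Tween-80-supplemented cation-adjusted Mueller Hinton broth face ten twofold compound dilutions for 22 h at 35° C.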

[2] = test system: Escherichia coli ATCC 25922; assay: Minimum inhibitory concentration (MIC), CLSI broth micro-dilution, E. coli; format: cell-based; settings: Table 6, cation adjusted Mueller Hinton Broth + 0.002% Tween-80, 35° C.
In short: as §1

[3] = Staphylococcus aureus, MRSA / USA200
[4] = Escherichia coli, ATCC25922, 22 h

Compound | MIC [1, 3] | MIC [2, 4] | MIC [1] | MIC ([2]; 22 hours)
CCCCCCc1ccc(C(=O)N[C@@H](CCN)C(=O)N(CC)[C@@H]2C(=O)N[C@@H](C)C(=O)N[C@H](C(=O)NCC#N)Cc3ccc(O)c(c3)-c3cc2ccc3O)c(C)c1 (racemic) [Compound 473, rac-(8S,11S,14S)-N-(cyanomethyl)-14-[ethyl-[rac-(2S)-4-amino-2-[(4-hexyl-2-methyl-benzoyl)amino]butanoyl]amino]-3,18-dihydroxy-11-methyl-10,13-dioxo-9,12-diazatricyclo[13.3.1.12,6]icosa-1(18),2(20),3,5,15(19),16-hexaene-8-carboxamide] | 0.31 µM | 4.9 µM |  | 
CCCCCCc1ccc(C(=O)N[C@@H](CCN)C(=O)N(CCN)[C@@H]2C(=O)N[C@@H](C)C(=O)N[C@H](C(=O)NCC#N)Cc3ccc(O)c(c3)-c3cc2ccc3O)c(C)c1 (racemic) [Compound 474, rac-(8S,11S,14S)-14-[2-aminoethyl-[rac-(2S)-4-amino-2-[(4-hexyl-2-methyl-benzoyl)amino]butanoyl]amino]-N-(cyanomethyl)-3,18-dihydroxy-11-methyl-10,13-dioxo-9,12-diazatricyclo[13.3.1.12,6]icosa-1(18),2(20),3,5,15(19),16-hexaene-8-carboxamide] | 0.11 µM | 4.8 µM |  | 
CCCCCCc1ccc(C(=O)N[C@@H](CCN)C(=O)N(CCO)[C@@H]2C(=O)N[C@@H](C)C(=O)N[C@H](C(=O)NCC#N)Cc3ccc(O)c(c3)-c3cc2ccc3O)c(C)c1 (racemic) [Compound 475, rac-(8S,11S,14S)-N-(cyanomethyl)-3,18-dihydroxy-14-[2-hydroxyethyl-[rac-(2S)-4-amino-2-[(4-hexyl-2-methyl-benzoyl)amino]butanoyl]amino]-11-methyl-10,13-dioxo-9,12-diazatricyclo[13.3.1.12,6]icosa-1(18),2(20),3,5,15(19),16-hexaene-8-carboxamide] | 0.6 µM | 4.8 µM |  | 
Cc1nc(-c2ccc(C(C)(C)C)cc2)ncc1C(=O)N[C@@H](CCN)C(=O)N(C)[C@@H]1C(=O)N[C@@H](CO)C(=O)N[C@H](C(=O)NCC#N)Cc2ccc(OCCN)c(c2)-c2cc1ccc2OCCN (racemic) [Compound 477, rac-(8S,11S,14S)-3,18-bis(2-aminoethoxy)-N-(cyanomethyl)-11-(hydroxymethyl)-14-[methyl-[rac-(2S)-4-amino-2-[[2-(4-tert-butylphenyl)-4-methyl-pyrimidine-5-carbonyl]amino]butanoyl]amino]-10,13-dioxo-9,12-diazatricyclo[13.3.1.12,6]icosa-1(18),2(20),3,5,15(19),16-hexaene-8-carboxamide] | 0.26 µM | 3.2 µM |  | 
CCCCCCCc1ccc(C(=O)N[C@@H](CCN)C(=O)N(C)[C@@H]2C(=O)N[C@@H](C3CC3)C(=O)N[C@H](C(=O)NCC#N)Cc3ccc(OCCN)c(c3)-c3cc2ccc3OCCN)c(C)c1 (racemic) [Compound 478, rac-(8S,11S,14S)-3,18-bis(2-aminoethoxy)-N-(cyanomethyl)-11-cyclopropyl-14-[methyl-[rac-(2S)-4-amino-2-[(4-heptyl-2-methyl-benzoyl)amino]butanoyl]amino]-10,13-dioxo-9,12-diazatricyclo[13.3.1.12,6]icosa-1(18),2(20),3,5,15(19),16-hexaene-8-carboxamide] | 0.071 µM | 1.1 µM |  | 
CCCCCCCCCCCCCC(=O)N1C[C@H](N)CC1C(=O)N(C)[C@@H]1C(=O)N[C@@H](C)C(=O)N[C@H](C(=O)NCC#N)Cc2ccc(OCCN)c(c2)-c2cc1ccc2OCCN (mixture of isomers) [Compound 483, rac-(8S,11S,14S)-3,18-bis(2-aminoethoxy)-14-[(4-amino-1-tetradecanoyl-pyrrolidine-2-carbonyl)-methyl-amino]-N-(cyanomethyl)-11-methyl-10,13-dioxo-9,12-diazatricyclo[13.3.1.12,6]icosa-1(18),2(20),3,5,15(19),16-hexaene-8-carboxamide] |  |  | 0.036 µM | 0.29 µM
Cc1nc(-c2ccc(OC3CCCCC3)cc2)nc(C)c1C(=O)N[C@@H](CCC(N)=O)C(=O)N(C)[C@@H]1C(=O)N[C@@H](C)C(=O)N[C@H](C(=O)NCC#N)Cc2ccc(OCCN)c(c2)-c2cc1ccc2OCCN (racemic) [Compound 505, rac-(2S)-2-[[2-[4-(cyclohexoxy)phenyl]-4,6-dimethyl-pyrimidine-5-carbonyl]amino]-N-methyl-N-[rac-(7S,10S,13S)-3,18-bis(2-aminoethoxy)-13-(cyanomethylcarbamoyl)-10-methyl-8,11-dioxo-9,12-diazatricyclo[13.3.1.12,6]icosa-1(19),2,4,6(20),15,17-hexaen-7-yl]pentanediamide] | 0.094 µM | 1.5 µM |  | 

Now from value to molecule:

MIC [1, 3] | MIC [2, 4] | MIC [1] | MIC ([2]; 22 hours) | Compound
0.0085 µM | 0.11 µM |  |  | Cc1nc(-c2ccc(C(C)(C)C)cc2)ncc1C(=O)N[C@@H](CCN)C(=O)N[C@@H]1C(=O)N[C@@H](C)C(=O)N[C@H](C(=O)NCC#N)Cc2ccc(OCCN)c(c2)-c2cc1ccc2OCCN (racemic) [Compound 472, rac-(8S,11S,14S)-3,18-bis(2-aminoethoxy)-N-(cyanomethyl)-11-methyl-10,13-dioxo-14-[[rac-(2S)-4-amino-2-[[2-(4-tert-butylphenyl)-4-methyl-pyrimidine-5-carbonyl]amino]butanoyl]amino]-9,12-diazatricyclo[13.3.1.12,6]icosa-1(18),2(20),3,5,15(19),16-hexaene-8-carboxamide]
0.025 µM | 1.1 µM |  |  | Cc1nc(-c2ccc(C(C)(C)C)cc2)ncc1C(=O)N[C@@H](CCN)C(=O)N(C)[C@@H]1C(=O)NCC(=O)N[C@H](C(=O)NCC#N)Cc2ccc(OCCN)c(c2)-c2cc1ccc2OCCN (racemic) [Compound 476, rac-(8S,14S)-3,18-bis(2-aminoethoxy)-N-(cyanomethyl)-14-[methyl-[rac-(2S)-4-amino-2-[[2-(4-tert-butylphenyl)-4-methyl-pyrimidine-5-carbonyl]amino]butanoyl]amino]-10,13-dioxo-9,12-diazatricyclo[13.3.1.12,6]icosa-1(18),2(20),3,5,15(19),16-hexaene-8-carboxamide]
0.027 µM | 0.77 µM |  |  | CCCCCCCc1ccc(C(=O)N[C@@H](CCN)C(=O)N(C)[C@@H]2C(=O)N[C@@H](CC)C(=O)N[C@H](C(=O)NCC#N)Cc3ccc(OCCN)c(c3)-c3cc2ccc3OCCN)c(C)c1 (racemic) [Compound 479, rac-(8S,11S,14S)-3,18-bis(2-aminoethoxy)-N-(cyanomethyl)-11-ethyl-14-[methyl-[rac-(2S)-4-amino-2-[(4-heptyl-2-methyl-benzoyl)amino]butanoyl]amino]-10,13-dioxo-9,12-diazatricyclo[13.3.1.12,6]icosa-1(18),2(20),3,5,15(19),16-hexaene-8-carboxamide]
0.061 µM | 1.6 µM |  |  | CCCCCCCc1ccc(C(=O)N[C@@H](CCN)C(=O)N[C@@H]2C(=O)N[C@@H](CC)C(=O)N[C@H](C(=O)NCC#N)Cc3ccc(OCCN)c(c3)-c3cc2ccc3OCCN)c(C)c1 (racemic) [Compound 480, rac-(8S,11S,14S)-3,18-bis(2-aminoethoxy)-N-(cyanomethyl)-11-ethyl-10,13-dioxo-14-[[rac-(2S)-4-amino-2-[(4-heptyl-2-methyl-benzoyl)amino]butanoyl]amino]-9,12-diazatricyclo[13.3.1.12,6]icosa-1(18),2(20),3,5,15(19),16-hexaene-8-carboxamide]
0.036 µM | 0.24 µM |  |  | CCCCCCCCCCCCCC(=O)N1C[C@H](N)CC1C(=O)N(C)[C@@H]1C(=O)N[C@@H](C)C(=O)N[C@H](C(=O)NCC#N)Cc2ccc(OCCN)c(c2)-c2cc1ccc2OCCN (mixture of isomers) [Compound 482, rac-(8S,11S,14S)-3,18-bis(2-aminoethoxy)-14-[(4-amino-1-tetradecanoyl-pyrrolidine-2-carbonyl)-methyl-amino]-N-(cyanomethyl)-11-methyl-10,13-dioxo-9,12-diazatricyclo[13.3.1.12,6]icosa-1(18),2(20),3,5,15(19),16-hexaene-8-carboxamide]
0.031 µM | 1 µM |  |  | Cc1nc(-c2ccc(C(C)(C)C)cc2)nc(C)c1C(=O)N[C@@H](COCCN)C(=O)N(C)[C@@H]1C(=O)N[C@@H](C)C(=O)N[C@H](C(=O)NCC#N)Cc2ccc(OCCN)c(c2)-c2cc1ccc2OCCN (racemic) [Compound 495, rac-(8S,11S,14S)-3,18-bis(2-aminoethoxy)-N-(cyanomethyl)-11-methyl-14-[methyl-[rac-(2S)-3-(2-aminoethoxy)-2-[[2-(4-tert-butylphenyl)-4,6-dimethyl-pyrimidine-5-carbonyl]amino]propanoyl]amino]-10,13-dioxo-9,12-diazatricyclo[13.3.1.12,6]icosa-1(18),2(20),3,5,15(19),16-hexaene-8-carboxamide]
0.0061 µM | 0.097 µM |  |  | CCCCCc1ccc(-c2nc(C)c(C(=O)N[C@@H](CCN)C(=O)N(C)[C@@H]3C(=O)N[C@@H](C)C(=O)N[C@H](C(=O)NCC#N)Cc4ccc(OCCN)c(c4)-c4cc3ccc4OCCN)c(C)n2)cc1 (racemic) [Compound 513, rac-(8S,11S,14S)-3,18-bis(2-aminoethoxy)-N-(cyanomethyl)-11-methyl-14-[methyl-[rac-(2S)-4-amino-2-[[4,6-dimethyl-2-(4-pentylphenyl)pyrimidine-5-carbonyl]amino]butanoyl]amino]-10,13-dioxo-9,12-diazatricyclo[13.3.1.12,6]icosa-1(18),2(20),3,5,15(19),16-hexaene-8-carboxamide]
